Measured values reported in patent US11214803B2, “Modulators of YAP1 expression” (Ionis Pharmaceuticals, Inc., priority 2019, dated 2022).
pIC50: −log10 of the molar value.

Key:
Yap1 mRNA [1] = experiment: Dose-dependent inhibition of human Yap1 in SNU-449 cells (Example 9, RTS36584); type: cell-based; conditions: free uptake; for % UTC (Yap1 mRNA): approximately 48 hours; for pIC50: linear regression on a log/linear plot
How it was run: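 SNU-449 cells (10,000/well) took up modified oligonucleotides by free uptake at a range of doses for about 48 h. Yap1 mRNA was quantified with primer-probe set RTS36584, normalised to RIBOGREEN total RNA and expressed as % untreated control; IC50 from linear regression on log/linear plot.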

Yap1 mRNA [2] = experiment: Inhibition of human Yap1 mRNA in SNU449 hepatocellular carcinoma xenograft tumors (Example 26); type: in vivo; conditions: SNU449 xenografts in NSG mice, 50 mg/kg twice weekly for five days, relative to PBS treated animals
How it was run: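 Female NSG mice bearing subcutaneous SNU449 xenografts (about 100 mm^3) dosed with modified oligonucleotides at 50 mg/kg twice weekly for five days, four per group. Tumour Yap1 mRNA measured by RT-qPCR, normalized to actin-beta, expressed as % of PBS-treated controls.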

Yap1 mRNA [3] = experiment: Inhibition of human Yap1 mRNA in squamous cell carcinoma CAL27 xenograft tumors (Example 28); type: in vivo; conditions: CAL27 xenografts in NCr-Foxn1nu mice, relative to PBS treated
Experimental: A squamous cell carcinoma CAL27 xenograft tumor model was used to evaluate activity of modified oligonucleotides targeted to human Yap1. Five million CAL27 cells in 30% matrigel were implanted subcutaneously into the flanks of female CrTac:NCr-Foxn1nu mice (from Taconic) at 4-6 weeks of age. Groups of four mice each were administered with either 15 mg/kg or 30 mg/kg of modified oligonucleotides daily for five days after tumor size had reached ˜100 mm^3 (about 3 weeks post implantation). Tumors were collected and tested for Yap1 mRNA knockdown by RT-qPCR. Yap1 mRNA levels were measured as previously described using the Human Yap1 primer-probe set RTS4814. Yap1 mRNA levels were normalized to actin-beta content, as measured by primer probe set RTS5002. Results are presented in the tables below as percent control of the amount of Yap1 mRNA relative to PBS treated […].

Yap1 mRNA [4] = experiment: Yap1 mRNA in SCC25 cells, RNA analysis (Example 25); type: cell-based, human; conditions: free uptake, 48 hours, RTS4814, normalized to actin-beta
Experimental: Modified oligonucleotides described in the studies above were tested at various doses in squamous cell carcinoma cell SCC25. A control oligonucleotide 792169 (a 3-10-3 cET gapmer with a full phosphorothioate backbone, […], designated herein as SEQ ID No.: 2940; is not complementary to any known human gene) was also tested.
Cultured SCC25 cells at a density of 5,000 cells per well were treated using free uptake with modified oligonucleotides diluted to concentrations described in the tables below. After approximately 48 hours, Yap1 mRNA levels were measured as previously described using the Human Yap1 primer-probe set RTS4814. Yap1 mRNA levels were normalized to actin-beta content, as measured by primer probe set RTS5002 (forward sequence […], designated herein as SEQ ID NO.: 20; reverse sequence […], designated herein as SEQ ID NO.: 21; probe sequence […], designated herein as SEQ ID NO.: 22). Results are presented in the tables below as percent control of the amount of Yap1 mRNA relative to untreated control cells (% UTC).

[5] = Tolerability in Sprague-Dawley rats, plasma chemistry markers (Example 22); type: in vivo; conditions: male Sprague-Dawley rats, 50 mg/kg s.c. weekly for 6 weeks (7 doses), 48 hours after last dose
Experimental: Sprague-Dawley rats are a multipurpose model used for safety and efficacy evaluations. The rats were treated with Ionis modified oligonucleotides from the studies described in the Examples above and evaluated for changes in the levels of various plasma chemistry markers.

[6] = cynomolgus monkey, in vivo, sc, 35 mg/kg
[7] = Cynomolgus monkey tolerability, hematology (Example 34); type: in vivo, cynomolgus monkeys; conditions: for BAS / EOS / HCT / HGB / LUC / LYM / MCH / MCHC / MCV / MON / NEU / PLT / RBC / RCDW / Retic / WBC: cynomolgus monkey, in vivo, sc, 35 mg/kg; for MPV: cynomolgus monkeys, 35 mg/kg subcutaneously, day 44
Experimental: To evaluate any effect of Ionis oligonucleotides in cynomolgus monkeys on hematologic parameters, blood samples of approximately 0.5 mL of blood was collected from each of the available study animals on day 44. The samples were collected in tubes containing K2-EDTA. Samples were analyzed for red blood cell (RBC) count, Hemoglobin (HGB), Hematocrit (HCT), Mean corpuscular volume (MCV), mean corpuscular hemoglobin (MCH), mean corpuscular hemoglobin concentration (MCHC), RBC Distribution Width (RCDW), reticulocyte count (Retic), platelet count (PLT), mean platelet volume (MPV), white blood cells (WBC) count, individual white blood cell counts, such as that of monocytes (MON), neutrophils (NEU), lymphocytes (LYM), eosinophils (EOS), basophils (BAS), and large unstained cells (LUC) using an ADVIA2120i hematology analyzer (Siemens, USA).

Substance	% UTC (Yap1 mRNA) (Yap1 mRNA [1]; 31.3 nM) [% UTC]	% UTC (Yap1 mRNA) (Yap1 mRNA [1]; 125.0 nM) [% UTC]	% UTC (Yap1 mRNA) (Yap1 mRNA [1]; 500.0 nM) [% UTC]	% UTC (Yap1 mRNA) (Yap1 mRNA [1]; 2000.00 nM) [% UTC]	pIC50 (Yap1 mRNA [1])	Yap1 mRNA in tumors, % control (Yap1 mRNA [2]) [% control]	Yap1 mRNA in tumors, % UTC (Yap1 mRNA [3]; 15 mg/kg daily for five days) [% UTC]	Yap1 mRNA in tumors, % UTC (Yap1 mRNA [3]; 30 mg/kg daily for five days) [% UTC]	Yap1 mRNA, % UTC (Yap1 mRNA [4]; 0.04 μM) [% UTC]	Yap1 mRNA, % UTC (Yap1 mRNA [4]; 0.2 μM) [% UTC]	Yap1 mRNA, % UTC (Yap1 mRNA [4]; 1 μM) [% UTC]	Yap1 mRNA, % UTC (Yap1 mRNA [4]; 5 μM) [% UTC]	ALT [5] [U/L]	AST [5] [U/L]	BUN [5] [mg/dL]	TBIL [5] [mg/dL]	A/G ratio [6]	BAS [7] [%]	EOS [7] [%]	HCT [7] [%]	other results
1197270 (TTAAAGTGTATGTCAG; cEt gapmer with 2'-OMe nucleoside, phosphorothioate, further chemistry not given here) [compound 1197270]	43	23	8	2	> 7.52	54	55	38	48	24	12	7	84	120	24	0.19	1.2	0.4	2.7	44	HGB [7]: 12 g/dL; LUC [7]: 1.2%; LYM [7]: 54%; MCH [7]: 22 pg; MCHC [7]: 28 g/dL; MCV [7]: 79 fL; MON [7]: 3.5%; NEU [7]: 38%; PLT [7]: 452 10^3/μL; RBC [7]: 5.6e+06 µL⁻¹; RCDW [7]: 12%; Retic [7]: 1.1%; WBC [7]: 10600 µL⁻¹; MPV [7]: 7.1 fL
1198872 (TGTATGTCAGAAGAGT; chemically modified gapmer, further chemistry not given here) [compound 1198872]	49	21	6	1	> 7.52	52	55	38	54	22	9	7	109	134	18	0.20	1.3	0.3	0.6	44	HGB [7]: 13 g/dL; LUC [7]: 0.5%; LYM [7]: 32%; MCH [7]: 23 pg; MCHC [7]: 30 g/dL; MCV [7]: 78 fL; MON [7]: 2.2%; NEU [7]: 64%; PLT [7]: 400 10^3/μL; RBC [7]: 5.7e+06 µL⁻¹; RCDW [7]: 12%; Retic [7]: 1.2%; WBC [7]: 10400 µL⁻¹; MPV [7]: 7.1 fL
1198728 (TATTAGAGTATGTGGC; modified gapmer, further chemistry not given here) [compound 1198728]	51	28	9	3	> 7.52	64	77	56	71	31	15	7	54	71	22	0.18	1.3	0.5	2.2	47	HGB [7]: 14 g/dL; LUC [7]: 0.9%; LYM [7]: 64%; MCH [7]: 23 pg; MCHC [7]: 29 g/dL; MCV [7]: 80 fL; MON [7]: 2.9%; NEU [7]: 29%; PLT [7]: 428 10^3/μL; RBC [7]: 5.9e+06 µL⁻¹; RCDW [7]: 12%; Retic [7]: 1.3%; WBC [7]: 10700 µL⁻¹; MPV [7]: 8.0 fL
1198605 (GTAATATTGCAATCTG; modified gapmer, further chemistry not given here) [compound 1198605]	57	27	7	1	7.52	55	65	48	48	23	10	5	46	76	18	0.33	1.5	0.4	0.8	46	HGB [7]: 13 g/dL; LUC [7]: 0.5%; LYM [7]: 51%; MCH [7]: 22 pg; MCHC [7]: 29 g/dL; MCV [7]: 75 fL; MON [7]: 2.8%; NEU [7]: 44%; PLT [7]: 385 10^3/μL; RBC [7]: 6.1e+06 µL⁻¹; RCDW [7]: 13%; Retic [7]: 1.1%; WBC [7]: 10500 µL⁻¹; MPV [7]: 8.1 fL
